Laboratory results reported in patent US8895504B2, “Amylin derivatives” (priority 2008, dated 2014).
*1 amine or outer side, *2 acyl side, *3 side chain or, on linkers, in order; H or OH if unused. Where a SMILES comes first, the peptide text is derived from it. Bridges are numbered along the chain shown (N, C = ends). The star is where a group is joined. C20 diacid = O=C(O)CCCCCCCCCCCCCCCCCCC(=O)*; γGlu = O=C(O)[C@H](CCC(=O)[*:2])N[*:1]

Assays:
[1] = target: T1, Amylin 3(a) receptor (human calcitonin receptor (CTa) and RAMP-3) (Homo sapiens, UniProt O60896+P30988); assay: Luciferase assay (III), BHK Amylin 3(a)//CRE-luc cells; assay type: cell-based; settings: BHK cells with Amylin 3(a) receptor and CRE luciferase reporter, 4 hours incubation; read-out: Potency Luciferase
T1 construct: expressed in transfected cells; host or cells: BHK570 cells, stably transfected with a CRE-luciferase reporter
T1 sequence (O60896 24-148): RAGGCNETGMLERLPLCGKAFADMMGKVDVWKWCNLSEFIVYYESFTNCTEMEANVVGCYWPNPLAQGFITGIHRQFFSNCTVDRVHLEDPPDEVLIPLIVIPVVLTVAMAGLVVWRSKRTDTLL
T1 sequence (P30988 25-474): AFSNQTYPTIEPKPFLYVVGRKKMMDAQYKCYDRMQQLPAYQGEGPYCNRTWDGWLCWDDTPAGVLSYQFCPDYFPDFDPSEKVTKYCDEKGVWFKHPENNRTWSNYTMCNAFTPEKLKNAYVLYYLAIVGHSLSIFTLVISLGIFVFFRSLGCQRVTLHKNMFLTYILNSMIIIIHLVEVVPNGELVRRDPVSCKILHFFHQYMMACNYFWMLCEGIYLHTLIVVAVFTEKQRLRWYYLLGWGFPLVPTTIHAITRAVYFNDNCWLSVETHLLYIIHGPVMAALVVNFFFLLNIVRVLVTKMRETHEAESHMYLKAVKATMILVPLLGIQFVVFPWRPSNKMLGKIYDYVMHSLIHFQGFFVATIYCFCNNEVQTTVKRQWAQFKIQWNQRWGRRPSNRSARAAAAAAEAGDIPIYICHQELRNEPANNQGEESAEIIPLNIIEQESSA
Procedure, shortened: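 BHK570 cells stably expressing CTa, RAMP-3 and a CRE-luciferase reporter, seeded at about 20,000 cells/well and grown overnight. Cells were exposed to standard or sample for 4 h at 37° C in phenol red-free DMEM with 10% FBS and 10 mM Hepes, pH 7,4. Luminescence was read after 30 min LucLite at room temperature.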

[2] = Assay (V) PK - determination of T½ in mini-pig; assay type: in vivo; settings: minipig, sc; terminal plasma half-life, subcutaneous, approx 2 nmol/kg, male Göttingen mini-pigs
Protocol: Assay (V) PK—Determination OF T½ in Mini-Pig
T½ is the terminal half-life=ln 2/λz of a compound in plasma. λz is the first order rate constant associated with the terminal (log-linear) portion of the plasma concentration-time curve and is estimated by linear regression of time vs. log concentration.
T½ values of the amylin analogues of the invention is determined by pharmacokinetic studies in male Göttingen mini-pigs from Ellegaard Göttingen Minipigs ApS and the principles of laboratory animal care are followed.
An acclimatization period of approximately 6-10 days was allowed before the animals entered the study. At start of the acclimatization period the mini-pigs were about 5 to 12 months old and in the weight range of 7-35 kg. The mini-pigs had two central venous catheters inserted which were used for blood sampling.
The studies were conducted in an animal room which was illuminated to give a cycle of approx 12 hours light and 12 hours darkness. The animals were housed individually.
The animals had free access to domestic quality drinking water during the study, but were typically fasted from overnight before dosing until approx 6-12 hours after dosing. The animals were weighed on arrival and on the days of dosing.
In the present studies the test substances were administered subcutaneously in approx 2 nmol/kg dose. The animals received a single subcutaneous injection. The subcutaneous injection was given on the right side of the neck, approximately 5-7 cm from the ear and 7-9 cm from the middle of the neck. The injections were given with a stopper on the needle, allowing approx 0.5 cm of the needle to be introduced. Each test substance was given to typically three but in some cases two or four animals.
A full plasma concentration-time profile, employing 12-16 sampling points, was obtained from each animal. In example blood samples were collected according to the following schedule:
After subcutaneous administration:
Predose (0), 0.5, 1, 2, 4, 6, 8, 12, 24, 48, 72, 96, 120, 168 and 240 hours after injection. In some cases also additional blood samples up to 288 hours post injection were taken.
At each sampling time, 0.5 to 2 ml of blood was drawn from each animal. The blood samples were taken via the central venous catheter.
The blood samples were collected into EDTA test tubes (i.e. Sarstedt Micro tube 1.3 mL K3E). Blood samples were kept on ice for max 20 min. before centrifugation. Plasma was separated using centrifugation (i.e. at 4° C., 10 min., 1500 G) and was immediately transferred to Micronic tubes. Approximately 200 μl plasma was transferred to each Micronic tube. The plasma was stored at −20° C. until assayed. The plasma samples were assayed for the content of amylin using an ELISA assay.
The plasma concentration-time profiles were analysed by a non-compartmental pharmacokinetic analysis (NCA) using WinNonlin Professional 5.0 (Pharsight Inc., Mountain View, Calif., USA). NCA was performed using the individual plasma concentration-time profiles from each animal. T½ is the terminal half-life=ln 2/λz and was determined from λz, the first order rate constant associated with the terminal (log-linear) portion of the curve, estimated by linear regression of time vs. log concentration.
ELISA Plasma Assay for Amylin Quantification
The human amylin ELISA is a monoclonal antibody-based sandwich immunoassay for determining amylin levels in human plasma. The capture antibody recognizes human amylin, amylin acid (deamidated amylin), a 1-20 fragment of amylin, but not reduced amylin.
The detection antibody binds to reduced or unreduced human amylin but not amylin acid and is complexed with streptavidin-alkaline phosphatase. The substrate, 4-methylumbelliferyl phosphate, is applied to the completed sandwich and the fluorescent signal, monitored at 355 nm/460 nm, is proportional to the amount of amylin present in the sample.

## CC[C@H](C)[C@H](NC(=O)[C@@H]1CCCN1C(=O)CNC(=O)[C@H](Cc1ccccc1)NC(=O)[C@H](CC(N)=O)NC(=O)[C@H](CC(N)=O)NC(=O)[C@H](CO)NC(=O)[C@H](CO)NC(=O)[C@H](Cc1c[nH]cn1)NC(=O)[C@H](Cc1c[nH]cn1)NC(=O)[C@H](CC(C)C)NC(=O)[C@H](Cc1ccccc1)NC(=O)[C@H](CC(N)=O)NC(=O)[C@H](C)NC(=O)[C@H](CC(C)C)NC(=O)[C@H](CCCNC(=N)N)NC(=O)[C@H](CCC(N)=O)NC(=O)[C@@H](NC(=O)[C@H](C)NC(=O)[C@@H]1CSSC[C@H](NC(=O)[C@H](CCCNC(=N)N)NC(=O)[C@H](CCCNC(=N)N)NC(=O)[C@H](Cc2c[nH]cn2)NC(=O)[C@H](CCC(=O)O)NC(=O)CC[C@H](NC(=O)CCCCCCCCCCCCCCCCCCC(=O)O)C(=O)O)C(=O)N[C@@H](CC(N)=O)C(=O)N[C@@H]([C@@H](C)O)C(=O)N[C@@H](C)C(=O)N[C@@H]([C@@H](C)O)C(=O)N1)[C@@H](C)O)C(=O)N[C@@H](CC(C)C)C(=O)N1CCC[C@H]1C(=O)N1CCC[C@H]1C(=O)N[C@H](C(=O)N[C@@H](CC(N)=O)C(=O)N[C@H](C(=O)NCC(=O)N[C@@H](CO)C(=O)N[C@@H](CC(N)=O)C(=O)N[C@H](C(=O)N[C@@H](Cc1ccc(O)cc1)C(N)=O)[C@@H](C)O)C(C)C)[C@@H](C)O [Example 55, N-alpha-[(S)-4-Carboxy-4-(19-carboxynonadecanoylamino)butyryl]-Glu-His-Arg-[Arg1,His17]-pramlintide] ({C20 diacid-γGlu}-EHRRCNTATCATQRLANFLHHSSNNFGPILPPTNVGSNTY-NH2; disulfide 5-10)
[1]
  EC50: 0.2 nM
[2]
  half-life: 38 h

## CC[C@H](C)[C@H](NC(=O)[C@@H]1CCCN1C(=O)CNC(=O)[C@H](Cc1ccccc1)NC(=O)[C@H](CC(N)=O)NC(=O)[C@H](CC(N)=O)NC(=O)[C@H](CO)NC(=O)[C@H](CO)NC(=O)[C@H](Cc1c[nH]cn1)NC(=O)[C@H](Cc1c[nH]cn1)NC(=O)[C@H](CC(C)C)NC(=O)[C@H](Cc1ccccc1)NC(=O)[C@H](CC(N)=O)NC(=O)[C@H](C)NC(=O)[C@H](CC(C)C)NC(=O)[C@H](CCCNC(=N)N)NC(=O)[C@H](CCC(N)=O)NC(=O)[C@@H](NC(=O)[C@H](C)NC(=O)[C@@H]1CSSC[C@H](NC(=O)[C@H](CCCCN)NC(=O)[C@H](CCCNC(=N)N)NC(=O)[C@H](Cc2c[nH]cn2)NC(=O)CC[C@H](NC(=O)CCCCCCCCCCCCCCCCCCC(=O)O)C(=O)O)C(=O)N[C@@H](CC(N)=O)C(=O)N[C@@H]([C@@H](C)O)C(=O)N[C@@H](C)C(=O)N[C@@H]([C@@H](C)O)C(=O)N1)[C@@H](C)O)C(=O)N[C@@H](CC(C)C)C(=O)N1CCC[C@H]1C(=O)N1CCC[C@H]1C(=O)N[C@H](C(=O)N[C@@H](CC(N)=O)C(=O)N[C@H](C(=O)NCC(=O)N[C@@H](CO)C(=O)N[C@@H](CC(N)=O)C(=O)N[C@H](C(=O)N[C@@H](Cc1ccc(O)cc1)C(N)=O)[C@@H](C)O)C(C)C)[C@@H](C)O [Example 40, N-alpha-[(S)-4-Carboxy-4-(19-carboxynonadecanoylamino)butyryl]-His-Arg-[His17]-pramlintide] ({C20 diacid-γGlu}-HRKCNTATCATQRLANFLHHSSNNFGPILPPTNVGSNTY-NH2; disulfide 4-9)
[1]
  EC50: 0.1 nM
[2]
  half-life: 31 h

## CC[C@H](C)[C@H](NC(=O)[C@@H]1CCCN1C(=O)CNC(=O)[C@H](Cc1ccccc1)NC(=O)[C@H](CC(N)=O)NC(=O)[C@H](CC(N)=O)NC(=O)[C@H](CO)NC(=O)[C@H](CO)NC(=O)[C@H](Cc1c[nH]cn1)NC(=O)[C@H](Cc1c[nH]cn1)NC(=O)[C@H](CC(C)C)NC(=O)[C@H](Cc1ccccc1)NC(=O)[C@H](CC(N)=O)NC(=O)[C@H](C)NC(=O)[C@H](CC(C)C)NC(=O)[C@H](CCCNC(=N)N)NC(=O)[C@H](CCC(N)=O)NC(=O)[C@@H](NC(=O)[C@H](C)NC(=O)[C@@H]1CSSC[C@H](NC(=O)[C@H](Cc2c[nH]cn2)NC(=O)[C@H](Cc2c[nH]cn2)NC(=O)[C@H](Cc2c[nH]cn2)NC(=O)[C@H](CCC(=O)O)NC(=O)CC[C@H](NC(=O)CCCCCCCCCCCCCCCCCCC(=O)O)C(=O)O)C(=O)N[C@@H](CC(N)=O)C(=O)N[C@@H]([C@@H](C)O)C(=O)N[C@@H](C)C(=O)N[C@@H]([C@@H](C)O)C(=O)N1)[C@@H](C)O)C(=O)N[C@@H](CC(C)C)C(=O)N1CCC[C@H]1C(=O)N1CCC[C@H]1C(=O)N[C@H](C(=O)N[C@@H](CC(N)=O)C(=O)N[C@H](C(=O)NCC(=O)N[C@@H](CO)C(=O)N[C@@H](CC(N)=O)C(=O)N[C@H](C(=O)N[C@@H](Cc1ccc(O)cc1)C(N)=O)[C@@H](C)O)C(C)C)[C@@H](C)O [Example 54, N-alpha-[(S)-4-Carboxy-4-(19-carboxynonadecanoylamino)butyryl]-Glu-His-His-[His1,His17]-pramlintide] ({C20 diacid-γGlu}-EHHHCNTATCATQRLANFLHHSSNNFGPILPPTNVGSNTY-NH2; disulfide 5-10)
[1]
  EC50: 0.1 nM
[2]
  half-life: 53 h
